Laboratory results published in ChEMBL document CHEMBL1681733, “Synthesis and evaluation of [(1R)-1-amino-2-(2,5-difluorophenyl)ethyl]cyclohexanes and 4-[(1R)-1-amino-2-(2,5-difluorophenyl)ethyl]piperidines as DPP-4 inhibitors” (Bioorg Med Chem Lett, 2011).

Assays:
[1] = target: Dipeptidyl peptidase 2 (Homo sapiens, UniProt Q9UHL4); assay: Inhibition of QPP
[2] = target: Dipeptidyl peptidase 4 (Homo sapiens, UniProt P27487)
[3] = target: T1, Prolyl endopeptidase FAP (Homo sapiens, UniProt Q12884); assay: Inhibition of FAP
T1 sequence (Q12884 whole entry): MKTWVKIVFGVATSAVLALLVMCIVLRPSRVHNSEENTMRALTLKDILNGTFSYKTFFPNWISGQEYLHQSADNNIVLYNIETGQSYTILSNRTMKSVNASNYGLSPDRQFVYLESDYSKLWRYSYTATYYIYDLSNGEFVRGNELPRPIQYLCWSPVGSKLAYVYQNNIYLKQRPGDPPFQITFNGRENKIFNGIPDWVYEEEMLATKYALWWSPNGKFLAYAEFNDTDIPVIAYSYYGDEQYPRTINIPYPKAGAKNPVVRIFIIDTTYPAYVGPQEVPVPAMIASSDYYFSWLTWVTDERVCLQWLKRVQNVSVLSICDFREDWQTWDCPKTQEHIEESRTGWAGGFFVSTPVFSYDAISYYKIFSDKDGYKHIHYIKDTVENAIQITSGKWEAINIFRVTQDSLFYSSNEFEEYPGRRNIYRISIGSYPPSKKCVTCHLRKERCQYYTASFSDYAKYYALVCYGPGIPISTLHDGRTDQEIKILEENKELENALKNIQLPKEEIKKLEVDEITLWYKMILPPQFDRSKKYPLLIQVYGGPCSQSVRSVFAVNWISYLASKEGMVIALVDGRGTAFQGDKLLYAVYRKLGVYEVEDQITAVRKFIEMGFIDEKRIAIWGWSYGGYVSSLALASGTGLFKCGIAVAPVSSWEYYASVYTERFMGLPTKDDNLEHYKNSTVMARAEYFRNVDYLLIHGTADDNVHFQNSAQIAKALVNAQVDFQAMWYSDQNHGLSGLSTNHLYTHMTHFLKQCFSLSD

[4] = target: Dipeptidyl peptidase 8 (Homo sapiens, UniProt Q6V1X1); assay: Inhibition of DPP8
[5] = target: Dipeptidyl peptidase 9 (Homo sapiens, UniProt Q86TI2); assay: Inhibition of DPP9
Dipeptidyl peptidase 9, sequence (Q86TI2 whole entry): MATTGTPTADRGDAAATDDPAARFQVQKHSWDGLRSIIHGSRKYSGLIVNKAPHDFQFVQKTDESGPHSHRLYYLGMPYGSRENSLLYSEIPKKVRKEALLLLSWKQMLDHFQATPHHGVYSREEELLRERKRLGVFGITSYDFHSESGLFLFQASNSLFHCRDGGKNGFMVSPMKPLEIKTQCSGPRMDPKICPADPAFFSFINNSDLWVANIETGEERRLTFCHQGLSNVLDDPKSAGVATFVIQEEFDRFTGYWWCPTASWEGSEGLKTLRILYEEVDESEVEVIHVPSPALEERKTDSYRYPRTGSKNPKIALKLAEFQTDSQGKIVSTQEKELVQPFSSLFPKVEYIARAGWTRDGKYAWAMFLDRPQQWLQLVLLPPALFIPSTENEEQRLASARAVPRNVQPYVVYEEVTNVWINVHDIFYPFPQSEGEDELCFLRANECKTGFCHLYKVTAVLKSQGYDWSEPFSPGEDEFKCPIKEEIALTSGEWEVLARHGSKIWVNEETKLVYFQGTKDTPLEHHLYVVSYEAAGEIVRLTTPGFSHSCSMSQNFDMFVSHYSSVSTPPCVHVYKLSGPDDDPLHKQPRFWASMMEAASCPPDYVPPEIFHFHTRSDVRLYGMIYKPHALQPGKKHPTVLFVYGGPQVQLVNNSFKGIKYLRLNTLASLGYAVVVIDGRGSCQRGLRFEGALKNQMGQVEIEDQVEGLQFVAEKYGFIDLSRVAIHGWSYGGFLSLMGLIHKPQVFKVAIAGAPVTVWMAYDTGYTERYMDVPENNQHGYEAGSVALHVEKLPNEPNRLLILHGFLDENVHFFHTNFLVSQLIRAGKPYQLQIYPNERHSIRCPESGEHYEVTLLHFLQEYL

Dipeptidyl peptidase 4, sequence (P27487 whole entry): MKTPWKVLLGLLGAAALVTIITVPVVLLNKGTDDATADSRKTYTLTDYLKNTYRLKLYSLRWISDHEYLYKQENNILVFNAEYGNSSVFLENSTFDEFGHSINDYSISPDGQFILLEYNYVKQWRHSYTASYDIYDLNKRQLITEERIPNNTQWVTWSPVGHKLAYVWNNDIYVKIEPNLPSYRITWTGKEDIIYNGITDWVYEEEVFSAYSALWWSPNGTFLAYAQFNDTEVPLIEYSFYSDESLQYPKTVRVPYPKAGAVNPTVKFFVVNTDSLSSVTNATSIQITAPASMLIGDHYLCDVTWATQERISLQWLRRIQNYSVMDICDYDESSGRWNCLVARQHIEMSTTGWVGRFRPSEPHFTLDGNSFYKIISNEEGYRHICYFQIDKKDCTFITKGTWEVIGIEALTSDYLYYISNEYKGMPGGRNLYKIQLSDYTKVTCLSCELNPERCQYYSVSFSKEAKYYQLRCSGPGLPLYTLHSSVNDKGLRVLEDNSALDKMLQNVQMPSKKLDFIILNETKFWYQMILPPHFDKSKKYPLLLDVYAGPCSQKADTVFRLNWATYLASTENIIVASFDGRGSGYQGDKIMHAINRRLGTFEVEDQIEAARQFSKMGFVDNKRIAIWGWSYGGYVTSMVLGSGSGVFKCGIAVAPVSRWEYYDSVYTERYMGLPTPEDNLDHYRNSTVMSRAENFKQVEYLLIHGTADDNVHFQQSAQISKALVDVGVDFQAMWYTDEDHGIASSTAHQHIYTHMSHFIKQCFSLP
Dipeptidyl peptidase 8, sequence (Q6V1X1 whole entry): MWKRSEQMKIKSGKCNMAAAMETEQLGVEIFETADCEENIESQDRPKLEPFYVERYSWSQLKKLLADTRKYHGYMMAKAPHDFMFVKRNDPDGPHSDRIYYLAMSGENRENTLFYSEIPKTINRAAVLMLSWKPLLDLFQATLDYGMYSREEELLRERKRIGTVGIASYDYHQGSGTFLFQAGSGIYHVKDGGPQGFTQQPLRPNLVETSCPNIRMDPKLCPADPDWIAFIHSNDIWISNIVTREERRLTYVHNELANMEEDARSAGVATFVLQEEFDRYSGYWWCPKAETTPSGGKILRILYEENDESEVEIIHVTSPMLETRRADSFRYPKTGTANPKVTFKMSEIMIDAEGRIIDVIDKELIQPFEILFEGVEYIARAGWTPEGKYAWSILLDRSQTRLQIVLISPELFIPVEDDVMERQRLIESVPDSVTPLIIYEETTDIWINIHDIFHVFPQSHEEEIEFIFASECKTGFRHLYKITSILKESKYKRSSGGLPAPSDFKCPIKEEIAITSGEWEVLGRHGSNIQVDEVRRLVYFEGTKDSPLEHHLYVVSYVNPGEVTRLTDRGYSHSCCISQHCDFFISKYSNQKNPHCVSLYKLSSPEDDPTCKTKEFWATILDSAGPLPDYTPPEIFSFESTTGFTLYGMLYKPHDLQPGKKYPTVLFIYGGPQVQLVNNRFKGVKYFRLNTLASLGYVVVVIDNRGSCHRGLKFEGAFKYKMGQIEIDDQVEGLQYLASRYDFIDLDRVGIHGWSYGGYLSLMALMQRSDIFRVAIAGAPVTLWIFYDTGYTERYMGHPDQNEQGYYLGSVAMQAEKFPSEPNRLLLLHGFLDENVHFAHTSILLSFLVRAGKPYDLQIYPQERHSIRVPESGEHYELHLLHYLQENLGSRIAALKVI

| SMILES | IC50 [1] [µM] | IC50 [2] [µM] | IC50 [3] [µM] | IC50 [4] [µM] | IC50 [5] [µM] |
| --- | --- | --- | --- | --- | --- |
| CN(C(=O)c1csnn1)[C@H]1CC[C@H]([C@H](N)Cc2cc(F)ccc2F)CC1 | – | – | > 35 | – | – |
| CN(C(=O)c1ccno1)[C@H]1CC[C@H]([C@H](N)Cc2cc(F)ccc2F)CC1 | 58 | 0.12 | > 35 | > 100 | – |
| CN(C(=O)c1c[nH]c2ccccc12)[C@H]1CC[C@H]([C@H](N)Cc2cc(F)ccc2F)CC1 | – | – | > 35 | – | – |
| Cc1noc(C)c1C(=O)N(C)[C@H]1CC[C@H]([C@H](N)Cc2cc(F)ccc2F)CC1 | – | – | > 35 | – | – |
| Cn1ccc(C(=O)N(C)[C@H]2CC[C@H]([C@H](N)Cc3cc(F)ccc3F)CC2)n1 | 21 | 0.14 | > 35 | > 100 | – |
| CC(=O)N(Cc1ccccc1)[C@H]1CC[C@H]([C@H](N)Cc2cc(F)ccc2F)CC1 | 17 | 0.11 | > 35 | > 100 | – |
| N[C@H](Cc1cc(F)ccc1F)[C@H]1CC[C@@H](N2CCC(F)(F)C2)CC1 | – | – | > 35 | – | – |
| N[C@H](Cc1cc(F)ccc1F)[C@H]1CC[C@H](N2CCC(F)(F)C2)CC1 | – | – | > 35 | – | – |
| N[C@H](Cc1cc(F)ccc1F)[C@H]1CC[C@@H](N2CCn3c(nnc3C(F)(F)F)C2)CC1 | > 100 | 0.28 | > 35 | – | – |
| N[C@H](Cc1cc(F)ccc1F)[C@H]1CC[C@@H](N2CCCCC2)CC1 | – | – | > 35 | – | – |
| N[C@H](Cc1cc(F)ccc1F)[C@H]1CC[C@H](N2CCCCC2)CC1 | – | – | > 35 | – | – |
| NC(=O)C1CCCN([C@H]2CC[C@@H]([C@H](N)Cc3cc(F)ccc3F)CC2)C1 (stereo not given in full) | – | – | > 35 | – | – |
| NC(=O)[C@H]1CCCN([C@H]2CC[C@H]([C@H](N)Cc3cc(F)ccc3F)CC2)C1 | – | – | > 35 | – | – |
| NC(=O)O[C@@H]1CCCN([C@H]2CC[C@H]([C@H](N)Cc3cc(F)ccc3F)CC2)C1 | – | – | > 35 | – | – |
| N[C@H](Cc1cc(F)ccc1F)[C@H]1CC[C@H](N2CCC[C@@H](O)C2)CC1 | > 100 | 0.27 | > 35 | – | – |
| N[C@H](Cc1cc(F)ccc1F)[C@H]1CC[C@H](NCCCC(F)(F)F)CC1 | – | – | > 35 | – | – |
| CN(Cc1ccc(C#N)cc1)[C@H]1CC[C@H]([C@H](N)Cc2cc(F)ccc2F)CC1 | 12 | 0.29 | > 35 | > 100 | – |

| SMILES | IC50 [1] [µM] | IC50 [2] [µM] | IC50 [3] [µM] | IC50 [4] [µM] | IC50 [5] [µM] |
| --- | --- | --- | --- | --- | --- |
| CN(Cc1cccc(C#N)c1)[C@H]1CC[C@H]([C@H](N)Cc2cc(F)ccc2F)CC1 | 14 | 0.22 | > 35 | > 100 | – |
| CCN(Cc1ccccc1)[C@H]1CC[C@H]([C@H](N)Cc2cc(F)ccc2F)CC1 | – | – | > 35 | – | – |
| CS(=O)(=O)N1CCC([C@H](N)Cc2cc(F)ccc2F)CC1 | – | – | > 35 | – | – |
| N[C@H](Cc1cc(F)ccc1F)C1CCN(c2ccccn2)CC1 | – | – | > 35 | – | – |
| N[C@H](Cc1cc(F)ccc1F)C1CCN(c2cccnc2)CC1 | – | – | > 35 | – | – |
| N[C@H](Cc1cc(F)ccc1F)C1CCN(c2ccncc2)CC1 | – | – | > 35 | – | – |
| N#Cc1cncc(N2CCC([C@H](N)Cc3cc(F)ccc3F)CC2)c1 | – | – | > 35 | – | – |
| N[C@H](Cc1cc(F)ccc1F)C1CCN(c2ccc(F)nc2)CC1 | – | – | > 35 | – | – |
| CCOC(=O)c1cncc(N2CCC([C@H](N)Cc3cc(F)ccc3F)CC2)c1 | – | – | > 35 | – | – |
| N[C@H](Cc1cc(F)ccc1F)C1CCN(c2ncccn2)CC1 | – | – | > 35 | – | – |
| COc1ncc(N2CCC([C@H](N)Cc3cc(F)ccc3F)CC2)cn1 | – | – | > 35 | – | – |
| N[C@H](Cc1cc(F)ccc1F)C1CCN(c2cnc(=O)[nH]c2)CC1 | – | – | > 35 | – | – |
| COC(=O)C1CCCC(N2CCC([C@H](N)Cc3cc(F)ccc3F)CC2)C1 (stereo not given in full) | – | – | > 35 | – | – |
| N[C@H](Cc1cc(F)ccc1F)C1CCN(C2CCCC(C(=O)O)C2)CC1 (stereo not given in full) | – | – | > 35 | – | – |
| NC(=O)C1CCCC(N2CCC([C@H](N)Cc3cc(F)ccc3F)CC2)C1 (stereo not given in full) | – | – | > 35 | – | – |
| N[C@H](Cc1cc(F)ccc1F)[C@H]1CC[C@H](N(CCCC(F)(F)F)Cc2ccccc2)CC1 (mixture of isomers) | 23 | 0.69 | > 35 | > 100 | – |
| NC(=O)C1CCCN([C@H]2CC[C@H]([C@H](N)Cc3cc(F)ccc3F)CC2)C1 (single isomer, unassigned) | – | – | > 35 | – | – |

The next lines start with the values.

| IC50 [1] [µM] | IC50 [2] [µM] | IC50 [3] [µM] | IC50 [4] [µM] | IC50 [5] [µM] | SMILES |
| --- | --- | --- | --- | --- | --- |
| 18 | 0.33 | > 35 | – | – | N[C@H](Cc1cc(F)ccc1F)[C@H]1CC[C@H](N2CCn3c(nnc3C(F)(F)F)C2)CC1 |
| – | – | > 35 | – | – | N[C@H](C(=O)N1CCSC1)[C@H]1CC[C@H](NC(=O)c2ccc(OC(F)(F)F)cc2)CC1 |
| – | – | > 35 | – | – | CN([C@H]1CC[C@H]([C@H](N)Cc2cc(F)ccc2F)CC1)S(=O)(=O)c1ccccc1 |
| – | – | > 35 | – | – | CN([C@H]1CC[C@H]([C@H](N)Cc2cc(F)ccc2F)CC1)S(=O)(=O)c1ccccc1C(F)(F)F |
| 9.6 | 0.085 | > 35 | > 69 | – | CN([C@H]1CC[C@H]([C@H](N)Cc2cc(F)ccc2F)CC1)S(=O)(=O)c1cccc(C#N)c1 |
| 23 | 0.18 | > 35 | > 100 | – | CN([C@H]1CC[C@H]([C@H](N)Cc2cc(F)ccc2F)CC1)S(=O)(=O)c1ccc(C#N)cc1 |
| – | – | > 35 | – | – | CN([C@H]1CC[C@H]([C@H](N)Cc2cc(F)ccc2F)CC1)S(=O)(=O)c1ccc(N)cc1 |
| 29 | 0.4 | > 35 | > 100 | > 100 | CN([C@H]1CC[C@H]([C@H](N)Cc2cc(F)ccc2F)CC1)S(=O)(=O)c1ccc(OC(F)(F)F)cc1 |
| – | – | > 35 | – | – | CN([C@H]1CC[C@H]([C@H](N)Cc2cc(F)ccc2F)CC1)S(=O)(=O)c1ccc(C(N)=O)cc1 |
| – | – | > 35 | – | – | CN([C@H]1CC[C@H]([C@H](N)Cc2cc(F)ccc2F)CC1)S(=O)(=O)c1ccc(F)cc1F |
| – | – | > 35 | – | – | CN([C@H]1CC[C@H]([C@H](N)Cc2cc(F)ccc2F)CC1)S(=O)(=O)c1ccc(-c2cnco2)cc1 |
| 57 | 0.28 | > 35 | – | > 100 | Cc1[nH]ncc1S(=O)(=O)N(C)[C@H]1CC[C@H]([C@H](N)Cc2cc(F)ccc2F)CC1 |
| > 100 | 0.5 | > 35 | > 100 | > 100 | Cn1cnc(S(=O)(=O)N(C)[C@H]2CC[C@H]([C@H](N)Cc3cc(F)ccc3F)CC2)c1 |
| 43 | 0.17 | > 35 | > 100 | > 100 | Cc1oncc1S(=O)(=O)N(C)[C@H]1CC[C@H]([C@H](N)Cc2cc(F)ccc2F)CC1 |
| – | – | > 35 | – | – | CC(=O)Nc1nc(C)c(S(=O)(=O)N(C)[C@H]2CC[C@H]([C@H](N)Cc3cc(F)ccc3F)CC2)s1 |
| 35 | 0.11 | > 35 | > 100 | – | CN([C@H]1CC[C@H]([C@H](N)Cc2cc(F)ccc2F)CC1)S(=O)(=O)c1cccnc1 |
| 29 | 0.038 | > 35 | > 100 | – | CCN([C@H]1CC[C@H]([C@H](N)Cc2cc(F)ccc2F)CC1)S(=O)(=O)c1c(C)noc1C |
| 10 | 0.67 | > 35 | > 100 | – | Cc1noc(C)c1S(=O)(=O)N(Cc1ccccc1)[C@H]1CC[C@H]([C@H](N)Cc2cc(F)ccc2F)CC1 |
| 40 | 0.57 | > 35 | > 100 | > 100 | Cc1noc(C)c1S(=O)(=O)N(CCCC(F)(F)F)[C@H]1CC[C@H]([C@H](N)Cc2cc(F)ccc2F)CC1 |
| 68 | 0.26 | > 35 | > 100 | – | CCN([C@H]1CC[C@H]([C@H](N)Cc2cc(F)ccc2F)CC1)S(C)(=O)=O |
| 11 | 1.3 | > 35 | > 100 | – | CS(=O)(=O)N(Cc1ccccc1)[C@H]1CC[C@H]([C@H](N)Cc2cc(F)ccc2F)CC1 |
| 86 | 2.4 | > 35 | > 100 | > 100 | CS(=O)(=O)N(CCCC(F)(F)F)[C@H]1CC[C@H]([C@H](N)Cc2cc(F)ccc2F)CC1 |
| > 100 | 0.99 | > 35 | – | – | CC(=O)N(C)[C@H]1CC[C@@H]([C@H](N)Cc2cc(F)ccc2F)CC1 |
| > 100 | 0.13 | > 35 | > 100 | – | CC(C)C(=O)N(C)[C@H]1CC[C@H]([C@H](N)Cc2cc(F)ccc2F)CC1 |
| – | – | > 35 | – | – | CN(C(=O)C(C)(C)C)[C@H]1CC[C@H]([C@H](N)Cc2cc(F)ccc2F)CC1 |
| > 100 | 0.73 | > 35 | > 100 | – | CN(C(=O)CCN)[C@H]1CC[C@H]([C@H](N)Cc2cc(F)ccc2F)CC1 |
| 58 | 0.14 | > 35 | > 100 | – | CN(C(=O)c1cccnc1)[C@H]1CC[C@H]([C@H](N)Cc2cc(F)ccc2F)CC1 |
